Measured values published in patent US10882837B2, “Amide compounds and use thereof” (ALPHALA CO., LTD., priority 2017, dated 2021).

Tests used:
[1] = biological target: T1, glucagon receptor (GCGR) (Homo sapiens, UniProt P47871); experiment: Glucagon cAMP inhibition assay (Cisbio cAMP Dynamic 2 HTRF); format: cell-based; details: GCGR overexpressed CHO-K1 cells or human primary hepatocytes (not specified); glucagon at EC50
T1 construct: expressed in transfected cells; host or cells: CHO-K1
Outline: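 GCGR-overexpressing CHO-K1 cells or human primary hepatocytes in HBSS with 0.1% BSA and 800 nM IBMX, pre-incubated 30 min with compound (1% DMSO final), then stimulated 30 min at room temperature with glucagon at its EC50. cAMP measured by HTRF after 60 min lysis; IC50 from non-linear regression.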

[2] = biological target: T2, GCGR (Homo sapiens, UniProt P47871); experiment: I125-glucagon binding assay (competition, GCGR membrane fractions); design: expressed in transfected cells; host or cells: CHO-K1; details: competition with I125-glucagon 0.0625 nM; membrane fractions from GCGR overexpressed CHO-K1 cells
Outline: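 Membranes from CHO-K1 cells overexpressing GCGR (7.5 µg/well) were preincubated 5 min with serially diluted compound in 50 mM Tris pH 7.4, 0.5% BSA. I125-glucagon was then added at 0.0625 nM final and incubated 30 min at 25 °C. After filtration, bound radioactivity was counted and IC50 derived by non-linear regression.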
Target sequence in this assay (P47871 26-477, species assumed): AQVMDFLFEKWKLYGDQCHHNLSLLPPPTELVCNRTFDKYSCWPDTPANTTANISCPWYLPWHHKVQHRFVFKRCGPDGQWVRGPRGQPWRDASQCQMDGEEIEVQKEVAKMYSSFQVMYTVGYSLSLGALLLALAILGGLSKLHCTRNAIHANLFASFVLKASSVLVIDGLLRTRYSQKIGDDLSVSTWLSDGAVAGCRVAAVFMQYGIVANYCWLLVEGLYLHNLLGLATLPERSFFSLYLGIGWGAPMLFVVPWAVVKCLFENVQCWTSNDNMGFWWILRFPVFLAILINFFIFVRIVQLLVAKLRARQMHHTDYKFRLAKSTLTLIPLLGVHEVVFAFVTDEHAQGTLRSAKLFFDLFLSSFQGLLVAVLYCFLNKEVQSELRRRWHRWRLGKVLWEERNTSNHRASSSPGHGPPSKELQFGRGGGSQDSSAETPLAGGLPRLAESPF

[3] = biological target: T2, GCGR; experiment: HTRF cAMP assay in primary human hepatocytes stimulated with recombinant glucagon; format: cell-based; design: endogenous in cells; host or cells: primary human hepatocytes
Protocol: Downstream secondary messenger eAMP induced by glucagon was detected by Cisbio cAMP Dynamic 2 kit. Testing compounds were each prepared as a dimethyl sulfoxide (DMSO) solution at the concentration of 10 mM. To evaluate the potency of compounds in inhibiting the cAMP production, glucagon receptor (GCGR) overexpressed CHO-K1 cells or human primary hepatocytes were treated with compounds with a serial dilution. The cells were re-suspended in Hank's Balanced Salt solution (HBSS) contained 0.1% (w/v) bovine serum albumin and 800 nM 3-isobutyl-1-methylxanthine (IBMX) and seeded into low volume, 384 wells white plate. The diluted compounds were then added into the plate for 30 minutes pre-incubation where the final DMSO concentration was 1%. The cells were stimulated with glucagon at the concentration equaled to EC50 (an indicium of the concentration of a drag that gives half-maximal response) for 30 minutes at room temperature. After incubation, lysis buffer contain cAMP antibody and fluorescence acceptor were added into each well for additional 60 minutes incubation.
The HTRF cAMP assay was performed by following the manufacturer guidance. Primary human hepatocytes, pre-incubated with tested compounds at various concentrations, were stimulated with recombinant glucagon and the IC50 values were determined by the non-linear regression based on the amount of cAMP production.
Target sequence in this assay (P47871 26-477): as the sequence (P47871 26-477, species assumed) above

T1 sequence (P47871 26-477, species assumed): as above

SMILES | IC50 [1] | IC50 [2] | IC50 [3]
CC(C)[C@H](Nc1ccc(C(=O)NCCC(=O)O)cn1)c1ccc(-c2nc3ccccc3s2)cc1 [Compound 4-28, (S)-3-(6-((1-(4-(benzo[d]thiazol-2-yl)phenyl)-2-methylpropyl)amino)nicotinamido)propanoic acid] | 2.69 µM | 0.0477 µM | 0.062 µM
CCC(C)[C@H](Nc1ccc(C(=O)NCCC(=O)O)cc1)c1ccc(-c2noc(-c3ccccc3)n2)cc1 (stereo partly drawn) [Compound 2-19, 3-(4-(((1S)-2-methyl-1-(4-(5-phenyl-1,2,4-oxadiazol-3-yl)phenyl)butyl)amino)benzamido)propanoic acid] | 0.473 µM | 0.049 µM | 0.015 µM
CC(C)[C@H](Nc1ccc(C(=O)NCCC(=O)O)cn1)c1ccc(-c2nc3ccccc3o2)cc1 [Compound 4-30, (S)-3-(6-((1-(4-(benzo[d]oxazol-2-yl)phenyl)-2-methylpropyl)amino)nicotinamido)propanoic acid] | 2.38 µM | 0.0418 µM | 0.053 µM
CCC(C)[C@H](Nc1ccc(C(=O)NCCC(=O)O)cc1)c1ccc(-c2nnc(-c3ccccc3)o2)cc1 (stereo partly drawn) [Compound 1-49, 3-(4-(((1S)-2-methyl-1-(4-(5-phenyl-1,3,4-oxadiazol-2-yl)phenyl)butyl)amino)benzamido)propanoic acid] | 2.05 µM | 0.092 µM | 0.019 µM
CC(C)C(Nc1ccc(C(=O)NCCC(=O)O)cc1)c1ccc(-c2noc(-c3ccccc3)n2)cc1 (centres unmarked) [Compound 2-26, 3-(4-((2-methyl-1-(4-(5-phenyl-1,2,4-oxadiazol-3-yl)phenyl)propyl)amino)benzamido)propanoic acid] | 0.57 µM | 0.04 µM | –
CC(C)C[C@@H](Nc1ccc(C(=O)NCCC(=O)O)cc1)c1ccc(-c2nnc(-c3ccccc3)o2)cc1 [Compound 1-62, (R)-3-(4-((3-methyl-1-(4-(5-phenyl-1,3,4-oxadiazol-2-yl)phenyl)butyl)amino)benzamido)propanoic acid] | 2.05 µM | 0.876 µM | –
COC(=O)CCNC(=O)c1ccc(N[C@H](c2ccc(-c3noc(-c4ccccc4)n3)cc2)C(C)C)cc1 [Compound 2-49, methyl (S)-3-(4-((2-methyl-1-(4-(5-phenyl-1,2,4-oxadiazol-3-yl)phenyl)propyl)amino)benzamido)propanoate] | 0.0558 µM | 0.285 µM | –
CCOC(=O)CCNC(=O)c1ccc(N[C@H](c2ccc(-c3nnc(C(F)(F)F)o3)cc2)C(C)CC)cc1 (stereo partly drawn) [Compound 1-34, ethyl 3-(4-(((1S)-2-methyl-1-(4-(5-(trifluoromethyl)-1,3,4-oxadiazol-2-yl)phenyl)butyl)amino)benzamido)propanoate] | 0.042 µM | 16.1 µM | –
CCOC(=O)CCNC(=O)c1ccc(C(Nc2ccc(-c3nnc(-c4ccc(F)cc4)o3)cc2)C(C)CC)cc1 (centres unmarked) [Compound 3-7, ethyl 3-(4-(1-((4-(5-(4-fluorophenyl)-1,3,4-oxadiazol-2-yl)phenyl)amino)-2-methylbutyl)benzamido)propanoate] | 0.159 µM | 0.246 µM | –
CC(C)CC(Nc1ccc(C(=O)NCCC(=O)O)cc1)c1ccc(-c2noc(C(C)(C)C)n2)cc1 (centres unmarked) [Compound 2-6, 3-(4-((1-(4-(5-(tert-butyl)-1,2,4-oxadiazol-3-yl)phenyl)-3-methylbutyl)amino)benzamido)propanoic acid] | 8.63 µM | 0.226 µM | –
CCCCC(Nc1ccc(C(=O)NCCC(=O)O)cc1)c1ccc(-c2nnc(C(C)(C)C)o2)cc1 (centres unmarked) [Compound 1-20, 3-(4-((1-(4-(5-(tert-butyl)-1,3,4-oxadiazol-2-yl)phenyl)pentyl)amino)benzamido)propanoic acid] | 15.2 µM | 0.562 µM | –
CCOC(=O)CCNC(=O)c1ccc(N[C@H](c2ccc(-c3nc4ccccc4s3)cc2)C(C)C)cc1 [Compound 4-25, ethyl (S)-3-(4-((1-(4-(benzo[d]thiazol-2-yl)phenyl)-2-methylpropyl)amino)benzamido)propanoate] | 0.0303 µM | 0.188 µM | –
CCOC(=O)CCNC(=O)c1ccc(N[C@@H](c2ccc(-c3nc4ccccc4o3)cc2)C(C)CC)cc1 (stereo partly drawn) [Compound 4-21, ethyl 3-(4-(((1R)-1-(4-(benzo[d]oxazol-2-yl)phenyl)-2-methylbutyl)amino)benzamido)propanoate] | 0.242 µM | 0.923 µM | –
CCOC(=O)CCNC(=O)c1ccc(N[C@@H](c2ccc(-c3nc4ccccc4o3)cc2)C2CCCC2)cc1 [Compound 4-11, ethyl (R)-3-(4-(((4-(benzo[d]oxazol-2-yl)phenyl)(cyclopentyl)methyl)amino)benzamido)propanoate] | 0.237 µM | 0.755 µM | –
